Measurements as given in US12698463B2, “Spatially controlled fabrication of multi-spheroid tissues using magnetic bioprinting” (The Board of Trustees of the Leland Stanford Junior …, priority 2022, dated 2026).

Key:
neural organoids [1] = assay: Cleaved caspase-3 immunofluorescence in adjacent neural organoids of the assembloids; assay type: cell-based, human; details: 200 nM panobinostat, neural organoids fused to DIPG organoids
Protocol: Organoids and assembloids were fixed in 4% PFA for 2 hours at 4° C. They were then washed three times with DPBS, for 15 min each, and transferred to a 30% sucrose solution in DPBS for 24-48 hours at 4° C. Once the organoids or assembloids sank in the sucrose solution, they were embedded in a 1:1 mixture of OCT (Fisher Scientific) and 30% sucrose in DPBS. They were then snap frozen on dry ice and stored at −80° C. A cryostat (Leica) was used to cut 50 μm sections for immunostaining.
Cryosections were washed with DPBS to remove excess OCT, then permeabilized with 0.25% Triton X-100 (Thermo Fisher) in DPBS (DPBS-T) for 1 hour and blocked with 5% goat serum (Gibco), 5% bovine serum albumin (BSA, Sigma), and 0.5% Triton X-100 in DPBS for 3 hours, all at RT. Samples were stained with primary antibodies for GFP, (1:200, Invitrogen a11122), cleaved caspase-3 (1:400, Cell Signaling 9661), and histone H3 mutated K27M (1:400, Abcam ab190631). Primary antibodies were diluted in 2.5% goat serum, 2.5% BSA, and 0.5% Triton X-100 in DPBS and incubated with the samples overnight at 4° C., Next, the samples were washed with DPBS-T (3×30 min, RT) and incubated with secondary antibody Alexa Fluor 488 (1:500, Invitrogen, A-11034) and 4′,6-diamidino-2-phenylindole (DAPI, 5 mg/mL stock, 1:2000, Invitrogen) in the same antibody dilution solution overnight at 4° C. […]

[2] = Cellulase-mediated CNF support scaffold degradation (rheology); details: range of cellulase concentrations, 0.5 wt % CNF, over time
Protocol: For measurements of cellulase-mediated CNF support scaffold degradation, cellulase (Sigma) was dissolved in DMEM/F12 (Gibco) and added atop 0.5 wt % CNF in a 1:4 ratio by volume to approximate the ratio of media to CNF support within the bioprinting chip. All samples were incubated in a humidified 37° C. incubator for three days. Depending on the downstream measurement, cellulase solutions, as well as non-cellulase containing DMEM/F12 controls, were either changed every day or allowed to incubate over the full three days without a media change.
Viscosity and storage moduli were obtained with an AR-G2 (TA Instruments) stress-controlled rheometer (20 mm 1° cone and plate geometry with a 28 μm gap). To observe the effect of cellulase on the viscosity of CNF over 72 hours, samples were loaded onto the stage at 37° C. for a 5 min time sweep with 1% oscillatory strain and 1 rad/s angular frequency. This was followed by a frequency sweep from 0.1 to 100 Hz at 1% strain. To measure the storage modulus, samples were loaded onto the stage at 2 hours, 4 hours, 6 hours, 24 hours, 48 hours, and 72 hours and subjected to a frequency sweep at 1 rad/s angular frequency.

neural organoids [3] = assay: Neural organoid viability (calcein AM / ethidium homodimer) after cellulase; assay type: cell-based, human; details: 0.5 wt % cellulase treatment over time
Protocol: To characterize viability, organoids were submerged in a solution consisting of DPBS supplemented with 2 μM calcein AM and 4 µM ethidium homodimer for 20 min at 37° C. The samples were washed with DPBS and imaged with an epifluorescent microscope (Leica Microsystems, THUNDER Imager 3D Cell Culture) and confocal microscope (Leica SPE).

[4] = Cellulase-mediated removal of residual CNF on extracted neural organoids; details: 0.5 wt % cellulase, over 72 hours
Protocol: To characterize cellulase-mediated CNF degradation after neural organoid release from the support scaffold, neural organoids were first cultured in 0.5 wt % CNF support bath for 1 day and released through diluting the support bath with DPBS. A 0.5 wt % cellulase (Sigma) solution, made up in neural medium, was filtered through a 0.22 μm filter, warmed to 37° C., and added to the organoids with daily medium changes. Organoids were imaged every day with an epifluorescent microscope (Leica Microsystems, THUNDER Imager 3D Cell Culture). The area of residual CNF on the organoid surface was manually measured with ImageJ (NIH, v.2.3.0/1.53q).

Row | Compound | cleaved caspase-3 expression (apoptosis) in adjacent neural organoids (neural organoids [1]) | cleaved caspase-3 expression (apoptosis) in adjacent neural organoids (neural organoids [1]; listed as Panobinostat) | viscosity and storage modulus of CNF support after cellulase [2] | organoid viability (neural organoids [3]) | residual CNF removed from organoid surface [4]
1 | Cc1[nH]c2ccccc2c1CCNCc1ccc(/C=C/C(=O)NO)cc1 [panobinostat] | did not exhibit substantially increased cleaved caspase-3 expression | does not induce substantial apoptosis |  |  | 
2 | cellulase |  |  | stepwise decreases in both viscosity and storage modulus | does not affect organoid viability | over 98%
